Patent US20050222178A1, “Process” (priority 2002, published 2005)

Test: relative stability of the polymorphic forms of Compound A
Format: physicochemical

| Structure (SMILES) | stability relative to the other polymorph (at elevated temperatures, for example temperatures in excess of 70° C.) | stability relative to the other polymorph (at ambient temperatures, for example 15-20° C.) |
| --- | --- | --- |
| CC(C)(C)c1nnc([C@H]2O[C@@H](n3cnc4c(Nc5ccc(Cl)cc5F)ncnc43)[C@H](O)[C@@H]2O)o1 [Polymorph II, (2S,3S,4R,5R)-2-(5-tert-butyl-[1,3,4]-oxadiazol-2-yl)-5-[6-(4-chloro-2-fluorophenylamino)-9H-purin-9-yl]-tetrahydrofuran-3,4-diol] | enhanced stability over Polymorph I |  |
| CC(C)(C)c1nnc([C@H]2O[C@@H](n3cnc4c(Nc5ccc(Cl)cc5F)ncnc43)[C@H](O)[C@@H]2O)o1 [Polymorph I, (2S,3S,4R,5R)-2-(5-tert-butyl-[1,3,4]-oxadiazol-2-yl)-5-[6-(4-chloro-2-fluorophenylamino)-9H-purin-9-yl]-tetrahydrofuran-3,4-diol] |  | enhanced stability over Polymorph II |
